System: LPS-induced TNF-α release (THP1 cells)
Test: Inhibition of LPS-induced TNF-α release from THP1 cells (ELISA)
Format: cell-based
Conditions: Homo sapiens, THP-1, LPS 2 mg/ml, 3 hours at 37° C., TNF-α by ELISA, read-out: IC50 (concentration giving 50% inhibition of LPS-induced TNF-α release)
Experimental: THP1 cells were cultivated in RPMI 1640 medium supplemented with antibiotics and 10% foetal calf serum, harvested by centrifugation and diluted to 5×10^5 cells/ml in the above medium supplemented with 20 mM HEPES buffer. Aliquots ([…]) of the cell suspension were plated out on 96 well culture plates and incubated for 0.5 hour at 37° C. prior to the addition of the test compounds. The latter were dissolved in dimethyl sulphoxide (DMSO) to a stock concentration of 1.2 mM which was diluted with phosphate buffered saline/10% DMSO solution to provide test compounds in final concentrations of 10^-9 to 10^-5 M, with each concentration being tested in duplicate. The cells were incubated with the test compounds for 0.5 hour at 37° C., LPS (bacterial lipopolysaccharide) was then added to a concentration of 2 mg/ml and incubation was continued for 3 hours at 37° C. in an atmosphere containing 5% CO2 and at 95% relative humidity. After centrifugation at 260 g for 10 minutes an aliquot of each supernatant was removed and the amount of TNF-α was estimated by ELISA (R & D Systems Europe Ltd., Abingdon, England). The concentration of test compound which brings about 50% inhibition of LPS-induced TNF-α release (IC50) was computed from the dose-response curve.
The results obtained in the foregoing test with representative compounds of formula I are compiled in the following Table.

Row | IC50 [nM] | Compound
1 | 589 | CC(C)C[C@@H](C(=O)NN(CC(C)C)C(=O)C(C)O)[C@H](C/C=C/c1ccccc1)C(=O)NO (mixture of isomers) [B, (E)-2(R)-[1(S)-(Hydroxycarbamoyl)-4-phenyl-3-butenyl]-2'-(2(RS)-hydroxypropionyl)-2'-isobutyl-4-methylvalerohydrazide]
2 | 201 | CC(C)C[C@@H](C(=O)NN(CC(C)C)C(=O)Cn1ccnc1)[C@H](C/C=C/c1ccccc1)C(=O)NO [C, (E)-2(R)-[1(S)-(Hydroxycarbamoyl)-4-phenyl-3-butenyl]-2'-[2-(1-imidazolyl)acetyl]-2'-isobutyl-4-methylvalerohydrazide]
3 | 303 | CC(C)C[C@@H](C(=O)NN(CC(C)C)C(=O)[C@@H](C)N)[C@H](C/C=C/c1ccccc1)C(=O)NO [A, (E)-2'-(D-Alanyl)-2(R)-[1(S)-(hydroxycarbamoyl)-4-phenyl-3-butenyl]-2'-isobutyl-4-methylvalerohydrazide]
4 | 345 | CC(C)C[C@@H](C(=O)NN(CC(C)C)C(=O)C1CCNCC1)[C@H](C/C=C/c1ccccc1)C(=O)NO [D, (E)-2(R)-[1(S)-(Hydroxycarbamoyl)-4-phenyl-3-butenyl]-2'-isobutyl-4-methyl-2'-[(4-piperidinyl)carbonyl]valerohydrazide]
